According to US20010000523A1, “Carboxylated polymers complexes” (priority 1999, published 2001):

System: eye
Experiment: Primary eye irritation, protocol FHSLA 16 CFR 1500.42
Format: in vivo
Conditions: products tested at 25% actives
Experimental: Eye irritation is a major concern in the formulation of personal care products, particularly when working with quats. Primary eye irritation was tested using the protocol outlined in FHSLA 16 CFR 1500.42. The products were tested at 25% actives.

SMILES	Description	Score
CCCCCCCCCCCCCCCCCC[N+](C)(C)Cc1ccccc1.[Cl-] [Stearalkonium Chloride]	Severely Irritating	116.5
CCCCCCCCCCCCCCCCCC[N+](C)(C)C.[Cl-] [Stearyl trimethyl ammonium chloride]	Severely Irritating	106.0
